Experimental data reported in US9150579B2, “Selective PI3K delta inhibitors” (Rhizen Pharmaceuticals SA, priority 2012, dated 2015).

Key:
[1] = Metabolic stability in human liver microsomes; assay type: in vitro ADME
Description: Metabolic stability studies were conducted using mouse, rat, and human liver microsomes. The protocol for the studies with mouse, rat, and human liver microsomes (all from BD Gentest, USA) is provided below. In brief, 0.4 mg protein was preincubated with 2 mM NADPH (cofactor) in phosphate buffer (pH˜7.4) for 15 min at 37° C. and then added with 1 μM test item and incubated further for 60 minutes in triplicate. The reaction mixture was terminated with methanol containing an internal standard and centrifuged further to analyze the test item remaining in the supernatant by LC-MS/MS. The percent parent compound remaining was calculated in comparison with similar samples terminated at 0 minutes.

leukemic cells = test: Assay 5: Apoptosis in leukemic cell lines (in situ Caspase 3 kit); assay type: cell-based; settings: 24 hrs
Description: Apoptosis in leukemic cells was determined using an in situ Caspase 3 kit (Millipore, US) as outlined below: • Seed leukemic cells at a density of 1×10^6 cells/well in a 6 well plate • Add test compound/DMSO at desired concentrations • Incubate the plate for 24 hrs at 37° C. in 5% CO2 incubator • Collect cells in a 2 ml centrifuge tube • Add 1.6 μL of freshly prepared 5× FLICA reagent and mix cells by slightly flicking the tubes • Incubate tubes for 1 hour at 37° C. under 5% CO2 • Add 2 ml of 1× wash buffer to each tube and mix • Centrifuge cells at <400×g for 5 minutes at room temperature. • Carefully remove and discard supernatant, and gently vortex cell pellet to disrupt any cell-to-cell clumping. • Resuspend cell pellet in 300 ul of 1× wash buffer • Place 100 μL of each cell suspension into each of two wells of a black microtiter plate. Avoid creation of bubbles. • Read […] of each microwell using an excitation wavelength of 490 nm and an emission wavelength of 520 nm • Percent increase in caspase-3 activity manifested by an increase in fluorescence compared to the control blank is to be calculated.

[2] = test system: PI3Kδ signalling in basophils; test: Assay 4: Inhibition of PI3Kδ signalling in basophils from human whole blood (anti-FcεR1 induced CD63 expression); settings: read-out: EC50, inhibition of anti-FcεR1 mediated CD63 expression
Description: PI3Kδ signalling in basophils manifested by an alteration of anti-FcεR1 induced CD63 expression is a useful pharmacodynamic marker determined using the Flow2CAST® kit (Buhlmann Laboratories, Switzerland). Briefly, it involves the following steps: • Mix the anti-coagulated blood sample by inverting the venipuncture tube several times • Prepare fresh and pyrogen-free 3.5 ml polypropylene or polystyrene tubes suitable for Flow Cytometry measurements • Add 49 μl of patient's whole blood to each tube. • Add 1 μl of 10% DMSO (background) or compound (10% DMSO) to the assigned tubes and mix gently. Incubate at room temperature for 15 min • Pipette 50 μl of the Stimulation buffer (background) or anti-FcεRI Ab to each tube • Add 100 μl of Stimulation Buffer to each tube • Mix gently. […] (using an incubator will take about 10 minutes longer incubation time due to less efficient heat transfer) • Add 2 ml pre-warmed (18-28° C.) Lysing Reagent to each tube, mix gently • Incubate for 5-10 minutes at 18-28° C. • Centrifuge the tubes for 5 minutes at 500×g • Decant the supernatant by using blotting paper • Resuspend the cell pellet with 300-800 μl of Wash Buffer • Vortex gently and acquire the data on the flow cytometer within the same day. • Percent CD63 positive cells within the gated basophil population are to be determined in different treatment groups and normalized to vehicle control.

PI3Kβ = PI3Kβ (Mus musculus (Mouse), UniProt Q8BTI9); settings: Cell-based; versus PI3Kδ
Chain of PI3Kβ (Q8BTI9 whole entry, canonical isoform): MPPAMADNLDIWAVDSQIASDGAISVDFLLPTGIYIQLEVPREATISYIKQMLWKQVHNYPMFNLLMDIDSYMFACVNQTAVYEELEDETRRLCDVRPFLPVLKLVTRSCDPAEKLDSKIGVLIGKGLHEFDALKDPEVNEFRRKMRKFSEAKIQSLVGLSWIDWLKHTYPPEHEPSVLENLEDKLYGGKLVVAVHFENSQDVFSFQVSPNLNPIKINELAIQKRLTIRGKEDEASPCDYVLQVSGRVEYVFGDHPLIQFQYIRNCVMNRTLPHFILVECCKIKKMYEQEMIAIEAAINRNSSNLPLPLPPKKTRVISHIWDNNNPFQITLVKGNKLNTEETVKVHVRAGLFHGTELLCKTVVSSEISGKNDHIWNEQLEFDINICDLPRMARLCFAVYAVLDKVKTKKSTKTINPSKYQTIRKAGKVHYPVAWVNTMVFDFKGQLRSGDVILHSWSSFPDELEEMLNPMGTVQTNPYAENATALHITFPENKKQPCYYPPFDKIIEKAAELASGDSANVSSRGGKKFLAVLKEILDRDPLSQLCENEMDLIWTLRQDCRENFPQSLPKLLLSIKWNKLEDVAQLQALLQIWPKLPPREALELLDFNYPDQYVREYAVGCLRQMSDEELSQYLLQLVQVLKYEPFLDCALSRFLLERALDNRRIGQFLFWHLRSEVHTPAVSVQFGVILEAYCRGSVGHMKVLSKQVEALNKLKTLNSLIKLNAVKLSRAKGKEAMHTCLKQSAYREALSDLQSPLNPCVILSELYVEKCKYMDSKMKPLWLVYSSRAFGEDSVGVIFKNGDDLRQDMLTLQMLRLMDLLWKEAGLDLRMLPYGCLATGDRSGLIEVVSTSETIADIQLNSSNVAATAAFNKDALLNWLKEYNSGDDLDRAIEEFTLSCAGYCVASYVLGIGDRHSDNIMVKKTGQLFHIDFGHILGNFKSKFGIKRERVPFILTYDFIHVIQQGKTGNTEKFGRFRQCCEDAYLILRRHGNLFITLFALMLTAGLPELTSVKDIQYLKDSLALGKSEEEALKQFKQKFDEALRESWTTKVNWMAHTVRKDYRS
Chain of PI3Kβ (P26450 whole entry partner, canonical isoform): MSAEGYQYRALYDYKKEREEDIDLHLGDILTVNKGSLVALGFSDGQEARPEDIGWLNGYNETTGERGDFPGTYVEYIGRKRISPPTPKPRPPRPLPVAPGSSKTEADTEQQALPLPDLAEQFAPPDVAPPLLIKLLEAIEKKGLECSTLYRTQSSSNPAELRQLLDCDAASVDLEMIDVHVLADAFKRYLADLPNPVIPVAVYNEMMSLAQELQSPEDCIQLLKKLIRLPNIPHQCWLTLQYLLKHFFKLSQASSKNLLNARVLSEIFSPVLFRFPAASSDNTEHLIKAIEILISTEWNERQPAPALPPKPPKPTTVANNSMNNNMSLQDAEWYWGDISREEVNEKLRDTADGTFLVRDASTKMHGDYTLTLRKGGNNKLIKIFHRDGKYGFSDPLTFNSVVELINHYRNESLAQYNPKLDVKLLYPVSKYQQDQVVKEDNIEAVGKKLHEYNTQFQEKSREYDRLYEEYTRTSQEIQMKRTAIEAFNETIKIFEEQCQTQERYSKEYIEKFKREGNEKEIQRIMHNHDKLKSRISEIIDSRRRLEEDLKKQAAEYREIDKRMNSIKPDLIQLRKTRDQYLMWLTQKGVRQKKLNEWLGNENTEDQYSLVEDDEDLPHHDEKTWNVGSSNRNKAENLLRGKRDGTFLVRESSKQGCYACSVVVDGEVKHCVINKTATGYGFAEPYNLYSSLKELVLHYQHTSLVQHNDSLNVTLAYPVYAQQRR
Description: (§1) Compound specificity towards PI3Kδ was determined in an IgM-induced B cell proliferation assay. B-cells isolated from blood of healthy subjects were seeded in a 96-well tissue culture plate and incubated with desired concentrations of compound for 30 min. Cells were stimulated with 5 μg/ml purified goat anti-human IgM. Growth was assessed using the 3-[4,5-dimethylthiazol-2-yl]-2,5-diphenyltetrazolium bromide (MTT) dye reduction test. For selectivity against PI3K α, β, or γ isoforms, NIH-3T3 or RAW macrophages were seeded in a 6-well tissue culture plate and incubated overnight. Complete medium was replaced with serum-free media the following day and compound at the desired concentrations were added. After 15 minutes, 20 ng/ml PDGF, 5 μM LPA, or 50 ng/ml c5a was added and incubated for an additional 10 minutes. Cells were lysed and AKT phosphorylation was determined by Western Blotting. Intensity of the bands was determined using ImageJ 1.42q (NIH, USA) and normalized to Actin (loading control).

PI3Kγ = PI3Kγ (Mus musculus (Mouse), UniProt Q9JHG7); settings: Cell-based; versus PI3Kδ
Chain of PI3Kγ (Q9JHG7 whole entry): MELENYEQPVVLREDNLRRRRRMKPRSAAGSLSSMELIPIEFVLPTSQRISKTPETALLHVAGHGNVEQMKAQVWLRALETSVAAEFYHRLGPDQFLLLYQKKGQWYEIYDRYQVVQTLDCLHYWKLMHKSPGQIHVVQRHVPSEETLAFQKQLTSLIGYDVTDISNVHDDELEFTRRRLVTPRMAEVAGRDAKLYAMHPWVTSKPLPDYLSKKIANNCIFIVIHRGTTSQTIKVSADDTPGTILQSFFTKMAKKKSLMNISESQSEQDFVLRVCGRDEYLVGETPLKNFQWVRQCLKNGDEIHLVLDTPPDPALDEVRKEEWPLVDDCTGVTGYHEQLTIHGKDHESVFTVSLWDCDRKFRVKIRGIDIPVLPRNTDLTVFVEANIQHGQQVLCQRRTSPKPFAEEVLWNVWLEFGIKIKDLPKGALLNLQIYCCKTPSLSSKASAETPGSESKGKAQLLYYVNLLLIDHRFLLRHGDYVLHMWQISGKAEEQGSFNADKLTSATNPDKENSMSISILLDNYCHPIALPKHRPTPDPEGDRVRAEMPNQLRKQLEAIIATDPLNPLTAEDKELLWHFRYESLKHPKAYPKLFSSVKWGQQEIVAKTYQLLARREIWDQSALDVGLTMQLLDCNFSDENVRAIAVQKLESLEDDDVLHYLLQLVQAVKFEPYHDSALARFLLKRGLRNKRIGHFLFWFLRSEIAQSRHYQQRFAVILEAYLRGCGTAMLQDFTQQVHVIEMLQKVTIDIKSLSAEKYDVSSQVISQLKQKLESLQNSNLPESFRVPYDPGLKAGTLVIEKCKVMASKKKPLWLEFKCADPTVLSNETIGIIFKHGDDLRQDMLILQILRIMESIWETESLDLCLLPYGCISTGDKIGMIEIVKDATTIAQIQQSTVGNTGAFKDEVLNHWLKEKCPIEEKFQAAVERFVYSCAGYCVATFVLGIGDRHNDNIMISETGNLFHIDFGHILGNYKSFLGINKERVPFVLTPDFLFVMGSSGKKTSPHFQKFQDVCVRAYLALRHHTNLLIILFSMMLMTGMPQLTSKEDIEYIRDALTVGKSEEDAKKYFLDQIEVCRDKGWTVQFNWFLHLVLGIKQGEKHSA
Description: as §1

PI3Kα = PI3Kα (Mus musculus (Mouse), UniProt P42337); settings: Cell-based; versus PI3Kδ
Chain of PI3Kα (P42337 whole entry): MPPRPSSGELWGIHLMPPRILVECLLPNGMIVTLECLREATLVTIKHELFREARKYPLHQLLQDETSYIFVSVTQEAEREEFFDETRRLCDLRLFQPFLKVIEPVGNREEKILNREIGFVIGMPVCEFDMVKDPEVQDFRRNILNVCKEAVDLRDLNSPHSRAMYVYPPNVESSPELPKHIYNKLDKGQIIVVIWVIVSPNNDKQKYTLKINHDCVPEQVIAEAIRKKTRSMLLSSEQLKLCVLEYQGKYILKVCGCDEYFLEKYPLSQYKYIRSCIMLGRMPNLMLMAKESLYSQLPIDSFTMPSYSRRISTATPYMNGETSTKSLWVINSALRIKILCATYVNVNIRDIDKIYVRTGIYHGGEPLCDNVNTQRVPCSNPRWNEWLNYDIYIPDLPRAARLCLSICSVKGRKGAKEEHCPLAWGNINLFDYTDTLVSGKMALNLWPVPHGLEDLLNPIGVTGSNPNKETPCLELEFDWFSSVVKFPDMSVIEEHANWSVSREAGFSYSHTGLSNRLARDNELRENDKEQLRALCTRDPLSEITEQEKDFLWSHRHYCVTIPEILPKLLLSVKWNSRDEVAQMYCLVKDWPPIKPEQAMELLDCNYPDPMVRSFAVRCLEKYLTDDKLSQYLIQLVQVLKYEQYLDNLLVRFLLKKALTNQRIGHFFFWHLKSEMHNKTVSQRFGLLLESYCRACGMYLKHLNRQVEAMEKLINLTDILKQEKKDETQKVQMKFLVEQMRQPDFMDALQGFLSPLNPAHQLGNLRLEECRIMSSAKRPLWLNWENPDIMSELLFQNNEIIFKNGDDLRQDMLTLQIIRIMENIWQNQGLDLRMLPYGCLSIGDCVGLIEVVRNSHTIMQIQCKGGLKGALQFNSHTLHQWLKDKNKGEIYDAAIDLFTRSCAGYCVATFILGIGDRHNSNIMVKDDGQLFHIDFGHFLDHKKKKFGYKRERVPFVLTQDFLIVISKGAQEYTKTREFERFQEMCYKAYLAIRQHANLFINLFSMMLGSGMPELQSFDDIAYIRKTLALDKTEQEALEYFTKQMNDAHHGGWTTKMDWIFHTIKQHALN
Chain of PI3Kα (P26450 whole entry partner): as the sequence (P26450 whole entry partner, canonical isoform) above
Description: as §1

[3] = test system: AML patient bone marrow leukemic cells; test: Assay 6-I: Flow cytometry analysis of apoptotic induction in AML patient bone marrow leukemic cells; assay type: cell-based, human
Description: 6-I: Flow cytometry analysis of apoptotic induction in AML patient bone marrow leukemic cells upon compound treatment using Annexin V and 7-AAD staining: Mononuclear cells were extracted by the Ficoll method and seeded in plates. The cells were treated by different compounds for 48 hrs before they were analyzed by flow cytometry. After washing with PBS, 1×10^5 cells were stained by Annexin V-APC and 7-AAD. Annexin V positive staining measures total apoptotic cells, including early and late apoptotic cells. For Annexin V positive cells, 7-AAD negative signal reflects early apoptotic cells.

Metabolic stability in liver microsomes, Human (percent parent compound remaining) ([1]; 1 μM test item, 60 minutes, NADPH): 54.5% | fold greater metabolic stability in human liver microsomes than its enantiomer ([1]; A1 vs A2, B1 vs B2): ~5 fold | EC50 [2]: ≤ 100 nM | Fold-Selectivity PI3Kβ (PI3Kβ): >30 fold | Fold-Selectivity PI3Kγ (PI3Kγ): >8 fold | Fold-Selectivity PI3Kα (PI3Kα): >1000 fold
SMILES: CC(C)Oc1ccc(-c2nn([C@@H](C)c3oc4ccccc4c(=O)c3-c3cccc(F)c3)c3ncnc(N)c23)cc1F [Compound A1, (S)-2-(1-(4-amino-3-(3-fluoro-4-isopropoxyphenyl)-1H-pyrazolo[3,4-d]pyrimidin-1-yl)ethyl)-3-(3-fluorophenyl)-4H-chromen-4-one]
Caspase-3 activity (leukemic cells): dose-dependently induced Caspase-3 activity | number of apoptotic cells [3]: concomitant increase in the number of apoptotic cells | fold increase in apoptosis ([3]; 3 μM, 48 hrs): ~1.5 fold increase in appotosis @ 3 μM and
